The text below walks through data of patent publication US10647679B2, “N-methyl-D-aspartate receptor (NMDAR) potentiators, pharmaceutical compositions, and uses related thereto” (Emory University, priority 2015, dated 2020).

Each structure is given as a SMILES string. Where two headings read alike, the source gives them in different places.

Holding throughout (assay type): cell-based
Experiment [1] addresses T1, recombinant rat GluN1/GluN2C (Rattus norvegicus, UniProt P35439+Q00961).
T1 construct: expressed in transfected cells; host or cells: Xenopus laevis oocytes (Ecocyte) injected with in vitro transcribed cRNA
In words: Two-electrode voltage-clamp (TEVC) recordings in Xenopus laevis oocytes, GluN1/GluN2C. The procedure: (§1) Data are from between 3-26 oocytes from 2-5 frogs for each compound and receptor tested.
(§2) Two-electrode voltage-clamp recordings were performed in Xenopus laevis oocytes (Ecocyte) expressing recombinant rat GluN1/GluN2A, GluN1/GluN2B, GluN1/GluN2C, GluN1/GluN2D. cRNA was transcribed in vitro (Ambion), diluted with nuclease free water, and injected at a ratio of 1:2 GluN1:GluN2 (5-10 ng total cRNA). The oocytes were kept in Barth's solution comprised of (in mM) 88 NaCl, 5 Tris-HCl, 2.4 NaHCO3, 1 KCl, 0.84 MgSO4, 0.41 CaCl2, and 0.33 Ca(NO3)2 at pH 7.4 at 15-17° C. for two to five days before experiments. Oocytes were placed into a perfusion chamber and continually washed with recording solution containing (in mM) 90 NaCl, 1.0 KCl, 0.5 BaCl2, 0.005 EDTA, and 10 HEPES at pH 7.4 (23° C.). Voltage clamp recordings were conducted at a holding potential of −40 mV. All compounds were made as 20 mM stock solutions in DMSO and dissolved to reach the final concentration in recording solution. Final DMSO content was 0.05-0.5% (vol/vol). Some oocytes expressing GluN1/GluN2A were pretreated with […] BAPTA-AM for 10 minutes or injected with […] of 2 mM K-BAPTA to prevent gradual run-up of the current response.
Background: Two-electrode voltage clamp is typically applied to oocytes expressing channels or transporters.

The target in experiment [2] is T2, recombinant rat GluN1/GluN2B (Rattus norvegicus, UniProt Q00960).
T2 construct: expressed in transfected cells; host or cells: Xenopus laevis oocytes (Ecocyte) injected with in vitro transcribed cRNA
T2 sequence (Q00960 27-1482, other chains not shown): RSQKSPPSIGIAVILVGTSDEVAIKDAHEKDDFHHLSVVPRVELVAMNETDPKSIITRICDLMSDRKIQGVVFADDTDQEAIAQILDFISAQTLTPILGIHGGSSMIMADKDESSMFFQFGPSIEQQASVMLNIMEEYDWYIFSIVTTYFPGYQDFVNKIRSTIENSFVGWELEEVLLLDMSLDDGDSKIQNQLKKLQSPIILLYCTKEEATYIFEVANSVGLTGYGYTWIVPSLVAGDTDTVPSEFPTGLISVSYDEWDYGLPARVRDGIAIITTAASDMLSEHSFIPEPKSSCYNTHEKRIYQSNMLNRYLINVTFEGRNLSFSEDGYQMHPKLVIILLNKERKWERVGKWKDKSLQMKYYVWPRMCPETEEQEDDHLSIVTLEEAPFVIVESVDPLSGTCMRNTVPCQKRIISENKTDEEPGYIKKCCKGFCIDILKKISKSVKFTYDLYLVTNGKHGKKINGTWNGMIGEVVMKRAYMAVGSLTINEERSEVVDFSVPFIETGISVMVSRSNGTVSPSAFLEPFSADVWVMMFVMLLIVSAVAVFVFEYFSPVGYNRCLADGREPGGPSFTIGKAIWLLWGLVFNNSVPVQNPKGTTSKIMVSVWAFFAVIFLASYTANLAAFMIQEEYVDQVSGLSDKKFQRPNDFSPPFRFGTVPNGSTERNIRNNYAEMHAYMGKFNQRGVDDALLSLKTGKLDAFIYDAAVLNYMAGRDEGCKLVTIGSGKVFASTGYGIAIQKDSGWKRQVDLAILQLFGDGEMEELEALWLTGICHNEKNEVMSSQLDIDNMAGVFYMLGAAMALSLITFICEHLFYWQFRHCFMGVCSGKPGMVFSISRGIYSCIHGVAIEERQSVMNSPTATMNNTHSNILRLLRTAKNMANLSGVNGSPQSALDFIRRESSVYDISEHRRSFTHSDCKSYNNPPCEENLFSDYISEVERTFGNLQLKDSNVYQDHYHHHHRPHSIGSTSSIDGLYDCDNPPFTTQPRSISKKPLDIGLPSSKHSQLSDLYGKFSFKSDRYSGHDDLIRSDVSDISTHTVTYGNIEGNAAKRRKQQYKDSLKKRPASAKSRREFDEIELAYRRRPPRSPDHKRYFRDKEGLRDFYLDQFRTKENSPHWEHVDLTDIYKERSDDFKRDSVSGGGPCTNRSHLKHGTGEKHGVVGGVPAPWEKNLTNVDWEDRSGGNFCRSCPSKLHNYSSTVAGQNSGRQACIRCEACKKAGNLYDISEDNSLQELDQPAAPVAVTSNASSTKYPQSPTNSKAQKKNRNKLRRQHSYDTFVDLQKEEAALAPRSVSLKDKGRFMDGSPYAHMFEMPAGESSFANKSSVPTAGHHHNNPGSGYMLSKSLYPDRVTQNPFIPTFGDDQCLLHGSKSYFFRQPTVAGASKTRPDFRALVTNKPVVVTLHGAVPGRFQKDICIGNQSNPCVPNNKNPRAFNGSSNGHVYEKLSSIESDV
Briefly: Two-electrode voltage-clamp (TEVC) recordings in Xenopus laevis oocytes, GluN1/GluN2B. Particulars: for I30 μM/Icontrol (mean ± SEM, %) GluN2B: 30 μM compound, Tables 5-7. The procedure:
as §1, §2

The target in experiment [3] is T3, recombinant rat GluN1/GluN2D (Rattus norvegicus, UniProt Q62645).
T3 construct: expressed in transfected cells; host or cells: Xenopus laevis oocytes (Ecocyte) injected with in vitro transcribed cRNA
T3 sequence (Q62645 28-1323, other chains not shown): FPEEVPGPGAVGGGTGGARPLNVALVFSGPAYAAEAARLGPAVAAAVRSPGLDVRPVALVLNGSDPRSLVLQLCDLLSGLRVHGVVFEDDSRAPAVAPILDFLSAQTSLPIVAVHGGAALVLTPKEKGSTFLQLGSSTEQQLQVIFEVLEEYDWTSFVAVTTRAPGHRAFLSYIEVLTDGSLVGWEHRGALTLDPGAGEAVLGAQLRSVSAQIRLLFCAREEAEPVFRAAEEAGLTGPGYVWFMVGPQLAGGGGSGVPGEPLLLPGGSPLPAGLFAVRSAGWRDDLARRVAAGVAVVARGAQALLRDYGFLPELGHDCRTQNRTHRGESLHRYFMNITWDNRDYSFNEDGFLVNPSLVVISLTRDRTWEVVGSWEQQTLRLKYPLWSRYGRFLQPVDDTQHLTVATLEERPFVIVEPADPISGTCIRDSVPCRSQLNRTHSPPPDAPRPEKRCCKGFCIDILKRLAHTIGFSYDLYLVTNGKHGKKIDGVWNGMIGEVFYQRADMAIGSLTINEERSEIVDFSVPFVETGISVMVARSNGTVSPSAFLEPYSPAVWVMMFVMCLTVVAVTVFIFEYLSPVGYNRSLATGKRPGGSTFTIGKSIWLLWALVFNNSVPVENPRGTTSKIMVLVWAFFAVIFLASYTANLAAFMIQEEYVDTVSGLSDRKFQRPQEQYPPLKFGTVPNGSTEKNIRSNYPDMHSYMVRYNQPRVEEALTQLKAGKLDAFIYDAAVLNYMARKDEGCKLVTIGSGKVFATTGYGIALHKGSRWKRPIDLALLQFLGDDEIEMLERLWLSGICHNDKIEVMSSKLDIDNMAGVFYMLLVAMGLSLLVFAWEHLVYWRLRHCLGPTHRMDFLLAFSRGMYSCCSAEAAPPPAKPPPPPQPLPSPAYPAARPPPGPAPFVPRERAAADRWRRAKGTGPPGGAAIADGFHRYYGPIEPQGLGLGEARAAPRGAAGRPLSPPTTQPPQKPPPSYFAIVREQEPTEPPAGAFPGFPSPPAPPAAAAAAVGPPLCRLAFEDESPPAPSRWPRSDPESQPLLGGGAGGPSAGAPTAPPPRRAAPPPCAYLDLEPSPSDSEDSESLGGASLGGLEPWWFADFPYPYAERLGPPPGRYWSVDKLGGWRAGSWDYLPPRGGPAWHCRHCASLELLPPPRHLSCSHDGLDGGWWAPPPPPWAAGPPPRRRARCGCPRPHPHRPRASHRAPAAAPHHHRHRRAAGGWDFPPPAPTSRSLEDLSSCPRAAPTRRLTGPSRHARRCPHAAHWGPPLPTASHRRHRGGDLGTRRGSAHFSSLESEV
Briefly: Two-electrode voltage-clamp (TEVC) recordings in Xenopus laevis oocytes, GluN1/GluN2D. As to conditions: for EC50: untitled tables after drawing 25 and drawing 36, read-out: EC50 (μM) GluN2D; for EC50 & Max Effect: 2D Max (%): Tables 11-13; for I30 μM/Icontrol (mean ± SEM, %) GluN2D: 30 μM compound, Tables 5-7. The procedure:
as §1, §2

The target of experiment [4] is T4, recombinant rat GluN1/GluN2C (Rattus norvegicus, UniProt Q00961).
T4 construct: expressed in transfected cells; host or cells: Xenopus laevis oocytes (Ecocyte) injected with in vitro transcribed cRNA
T4 sequence (Q00961 20-1237, other chains not shown): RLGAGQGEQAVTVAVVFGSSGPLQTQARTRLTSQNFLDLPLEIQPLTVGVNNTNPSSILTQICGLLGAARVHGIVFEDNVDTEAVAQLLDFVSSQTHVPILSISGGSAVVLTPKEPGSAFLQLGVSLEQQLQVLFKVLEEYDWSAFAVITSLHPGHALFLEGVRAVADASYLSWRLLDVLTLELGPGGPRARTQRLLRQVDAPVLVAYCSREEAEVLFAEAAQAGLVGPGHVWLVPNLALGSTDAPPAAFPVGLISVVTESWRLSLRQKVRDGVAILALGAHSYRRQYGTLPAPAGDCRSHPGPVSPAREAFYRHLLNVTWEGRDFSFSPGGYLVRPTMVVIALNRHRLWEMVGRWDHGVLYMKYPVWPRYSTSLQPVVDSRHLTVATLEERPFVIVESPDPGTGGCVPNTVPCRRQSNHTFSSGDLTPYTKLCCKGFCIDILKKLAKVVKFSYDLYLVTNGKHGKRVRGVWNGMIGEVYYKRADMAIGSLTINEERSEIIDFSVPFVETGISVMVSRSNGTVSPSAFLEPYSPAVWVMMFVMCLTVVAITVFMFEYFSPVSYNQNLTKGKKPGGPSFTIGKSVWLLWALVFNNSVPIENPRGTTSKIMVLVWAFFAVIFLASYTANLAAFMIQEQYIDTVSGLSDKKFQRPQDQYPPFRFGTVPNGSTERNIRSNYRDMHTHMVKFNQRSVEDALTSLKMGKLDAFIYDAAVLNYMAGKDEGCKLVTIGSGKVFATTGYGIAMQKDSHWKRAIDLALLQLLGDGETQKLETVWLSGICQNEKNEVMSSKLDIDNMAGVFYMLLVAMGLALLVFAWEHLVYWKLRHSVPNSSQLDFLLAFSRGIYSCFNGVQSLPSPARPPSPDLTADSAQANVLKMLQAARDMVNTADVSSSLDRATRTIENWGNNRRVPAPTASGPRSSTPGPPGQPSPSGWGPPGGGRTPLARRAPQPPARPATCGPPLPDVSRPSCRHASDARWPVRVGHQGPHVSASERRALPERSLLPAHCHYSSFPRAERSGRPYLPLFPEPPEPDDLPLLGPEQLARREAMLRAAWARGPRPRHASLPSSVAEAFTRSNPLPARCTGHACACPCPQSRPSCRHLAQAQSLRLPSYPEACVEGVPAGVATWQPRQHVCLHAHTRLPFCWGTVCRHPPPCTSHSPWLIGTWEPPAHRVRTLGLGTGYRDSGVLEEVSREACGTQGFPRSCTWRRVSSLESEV
Briefly: Two-electrode voltage-clamp (TEVC) recordings in Xenopus laevis oocytes, GluN1/GluN2C. As to conditions: for I30 μM/Icontrol (mean ± SEM, %) GluN2C: 30 μM compound, Tables 5-7. The procedure:
as §1, §2

Where [5] appears, read: untitled tables after drawing 25 and drawing 36, read-out: EC50 (μM) GluN2C.

T1 sequence (Q00961 20-1237, other chains not shown): as above

Usually EC50 stands for the concentration that produces a half-maximal response. Turning to `COc1ccc(OCC2c3ccc(OC)cc3CCN2C(=O)c2coc(Cl)n2)cc1` (stereo not shown) [1180-247], in experiment [1] (setting [5]), the EC50 was found to be 65 µM. The “GluN2B response % at 30 µM” value in experiment [2] stood at 99% at 30. For the same molecule, the “GluN2D response % at 100 μM” value in experiment [3] (at 100 μM) turned out to be 223% at 100.
Turning to `COc1ccc(OCC2c3ccc(OC)cc3CCN2C(=O)C=CCl)cc1` (stereo not shown) [1180-251], the “GluN2C response % at 30 µM” value in experiment [4] is on record as 99% at 30. Also, the “GluN2B response % at 30 µM” value in experiment [2] was determined as 96% at 30. For the same molecule, the “GluN2D response % at 30 µM” value in experiment [3] worked out at 88% at 30.
On to `COc1ccc(OCC2c3ccc(OC)cc3CCN2C(=O)C=CC(F)(F)F)cc1` (stereo not shown) [1180-253], for which the EC50 in experiment [4] (setting [5]) stood at 7 µM; in experiment [3] it was 9 µM. In addition, the “GluN2B response % at 30 µM” value in experiment [2] was 101% at 30.
The like results for `COc1ccc(OCC2c3ccc(OC)cc3CCN2C(=O)C=C(C)C(F)(F)F)cc1` (stereo not shown) [1180-255] were, in that order, 15 µM, 23 µM and 99% at 30.
In the case of `CCOc1ccc(OCC2c3ccc(OC(C)C)cc3CCN2C(=O)C=C(C)C(F)(F)F)cc1` (stereo not shown) [1180-263], the “GluN2C response % at 30 µM” value in experiment [4] is recorded as 165% at 30. Also, the “GluN2B response % at 30 µM” value in experiment [2] stood at 145% at 30. Moreover, in experiment [3], the “GluN2D response % at 30 µM” value is reported as 146% at 30.
With `CC(C)Oc1ccc(OCC2c3ccc(OC(C)C)cc3CCN2C(=O)c2cccc(Cl)c2)cc1` (stereo not shown) [1180-264], the “GluN2C response % at 30 µM” value in experiment [4] is reported as 127% at. Besides, the EC50 in experiment [2] (untitled tables after drawing 25 and drawing 36, read-out: EC50 (μM) GluN2B) stood at 4.6 µM. Moreover, in experiment [3], the “GluN2D response % at 30 µM” value came to 101% at.
As to `COc1ccc(OCC2c3cc(O)c(OC)cc3CCN2C(=O)C=CC(F)(F)F)cc1` (stereo not shown) [1180-328], the “GluN2C response % at 30 µM” value in experiment [4] is 109 at 30%. Besides, the “GluN2B response % at 30 µM” value in experiment [2] turned out to be 100 at 30%. Moreover, in experiment [3], the “GluN2D response % at 30 µM” value came out at 120 at 30%.
For `COc1ccc(OCC2c3cc(OC(=O)c4cccc(Cl)c4)c(OC)cc3CCN2C(=O)C=CC(F)(F)F)cc1` (stereo not shown) [1180-330], in that order: 102 at 30%, 95 at 30% and 96 at 30%.
As for `COc1ccc(OCC2c3cc(OC)c(OC)cc3CCN2C(=O)c2cccc(Cl)c2)cc1` (stereo not shown) [1390 (CIQ), reference compound], the “EC50 & Max Effect: 2C Max (%)” value in experiment [4] is 215%. For the same molecule, the EC50 in experiment [4] (read-out: EC50 & Max Effect: 2C) is 2.9 µM. The “EC50 & Max Effect: 2D Max (%)” value in experiment [3] turned out to be 205%.
On to `CCOc1ccc(OC[C@H]2c3ccc(OC(C)C)cc3CCN2C(=O)c2cccc(F)c2)cc1` [(R)-(+)-1180-87], for which, in experiment [4], the “I30 μM/Icontrol (mean ± SEM, %) GluN2C” value stood at 103%. For the same molecule, the “I30 μM/Icontrol (mean ± SEM, %) GluN2B” value in experiment [2] stood at 103%. Moreover, in experiment [3], the “I30 μM/Icontrol (mean ± SEM, %) GluN2D” value was determined as 86%.
In the case of `CCOc1ccc(OC[C@H]2c3ccc(OC(C)C)cc3CCN2C(=O)c2cccc(C(F)(F)F)c2)cc1` [(R)-(+)-1180-92], in experiment [4], the “I30 μM/Icontrol (mean ± SEM, %) GluN2C” value was found to be 73%. Moreover, in experiment [2], the “I30 μM/Icontrol (mean ± SEM, %) GluN2B” value is reported as 75%. For the same molecule, the “I30 μM/Icontrol (mean ± SEM, %) GluN2D” value in experiment [3] is reported as 75%.
Consider `CCOc1ccc(OC[C@H]2c3ccc(OC(C)C)cc3CCN2C(=O)c2ccc(Cl)c(Cl)c2)cc1` [(R)-(+)-1180-103], for which the “I30 μM/Icontrol (mean ± SEM, %) GluN2C” value in experiment [4] is 92%. Further, in experiment [2], the “I30 μM/Icontrol (mean ± SEM, %) GluN2B” value stood at 83%. In addition, the “I30 μM/Icontrol (mean ± SEM, %) GluN2D” value in experiment [3] stood at 93%.
`COc1ccc(OC[C@H]2c3cc(OC)c(OC)cc3CCN2C(=O)c2cccc(Cl)c2)cc1` [R-1390]: the “EC50 & Max Effect: 2C (μM)” value in experiment [4] is on record as “Inactive”. For the same molecule, in experiment [3], the “EC50 & Max Effect: 2D (μM)” value is “Inactive”.
As to `COc1ccc(OCC2c3cc(OC)c(OC)cc3CCN2C(=O)c2cccc(Br)c2)cc1` (stereo not shown) [compound 1391], the Emax in experiment [1] (Tables 11-13, read-out: EC50 & Max Effect: 2C Max (%)) was found to be 145%. In addition, in experiment [3], the “EC50 & Max Effect: 2D Max (%)” value turned out to be 188%.
